Data taken from US8071797B2 (priority 2008, dated 2011).

Assays:
[1] = tested on: HCV replicon cells (2209-23), genotype 1b replicon in Huh7 cells; assay: HCV replicon assay (Renilla luciferase reporter); assay type: cell-based, HCV genotype 1b; details: Hepatitis C virus, Huh-7, 72 h; cell line 2209-23, three days incubation
[2] = biological target: T1, HCV polymerase (NS5B570n-Con1) (Hepatitis C virus genotype 1b, UniProt Q9WMX2); assay: HCV NS5B RNA polymerase activity assay; assay type: biochemical, HCV Con1 strain
T1 construct: contains a 21 amino acid deletion at the C-terminus relative to the full-length HCV polymerase; 6-histidine (N); made in house; host or cells: E. coli BL21 (DE) pLysS
Method in brief: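 His6-tagged NS5B Con1 (genotype 1b, 21-aa C-terminal deletion; 20 nM) copied 20 nM cIRES RNA template with [3H]UTP plus 1 μM ATP, CTP and GTP in pH 8.0 Tris buffer with 4 mM MgCl2 and DTT, 2 h at 30 °C. TCA-precipitated RNA counted by scintillation. IC50 from four-parameter fit versus no-compound control, no-enzyme background subtracted.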

in vitro = details: human
HCV = details: monotherapy; cited from earlier work
[3] = IC50 NS5B polymerase assay, Table I
[4] = Polymerase Assay IC50, Table II

Structure (SMILES) | IC50 [1] [nM] | melting point [°C] | IC50 [2, 3] [nM] | IC50 [2, 4] [nM] | CC50 (in vitro) [µM] | patients in whom serum amino transferase levels are reduced to normal (HCV) [%]
CNC(=O)c1c(-c2ccc(Nc3ccccc3)cc2)oc2cc(N(CCO)S(C)(=O)=O)c(OC)cc12 [Compound I-1, 6-[(2-hydroxy-ethyl)-methanesulfonyl-amino]-5-methoxy-2-(4-phenylamino-phenyl)-benzofuran-3-carboxylic acid methylamide] | 43 | 144.6 to 146.9 | 43 | 5 | 30.6 | –
CNC(=O)c1c(-c2ccc(Oc3ccc(F)cc3)cc2)oc2cc(N(CCCN)S(C)(=O)=O)c(C3CC3)cc12 [Compound I-69] | 10 | – | 18 | 18 | 4.6 | –
CNC(=O)c1c(-c2ccc(Nc3ccc(C(C)C)cc3)cc2)oc2cc(N(CCO)S(C)(=O)=O)c(OC)cc12 [Compound I-6] | – | 223.9 to 234.5 | 544 | – | – | –
CNC(=O)c1c(-c2ccc(Oc3ccccc3)cc2)oc2cc(N(CCO)S(C)(=O)=O)c(C3CC3)cc12 [Compound I-33] | – | 110 to 115 | 21 | – | – | –
NC(=O)c1ncn([C@@H]2O[C@H](CO)[C@@H](O)[C@H]2O)n1 [ribavirin, 1-((2R,3R,4S,5R)-3,4-Dihydroxy-5-hydroxymethyl-tetrahydro-furan-2-yl)-1H-[1,2,4]triazole-3-carboxylic acid amide] | – | – | – | – | – | 40
CNC(=O)c1c(-c2ccc(Oc3ccc(F)cc3)cc2)oc2cc(C(C)=O)c(OC)cc12 [Compound I-104] | – | 207 to 209 | 139 | – | – | –
CNC(=O)c1c(-c2ccc(Oc3ccc(F)cc3)cc2)oc2cc(N(CCO)S(C)(=O)=O)c(C3CC3)cc12 [Compound I-32, 5-Cyclopropyl-2-[4-(4-fluoro-phenoxy)-phenyl]-6-[(2-hydroxy-ethyl)-methanesulfonyl-amino]-benzofuran-3-carboxylic acid methylamide] | – | 110 to 115 | 60 | – | – | –
CNC(=O)c1c(-c2ccc(Oc3ccccc3)cc2)oc2cc(N3CCN(C)S3(=O)=O)c(C3CC3)cc12 [Compound I-105, 5-Cyclopropyl-6-(5-methyl-1,1-dioxo-1λ^6-[1,2,5]thiadiazolidin-2-yl)-2-(4-phenoxy-phenyl)-benzofuran-3-carboxylic acid methylamide] | – | 105 to 107 | 41 | – | – | –
CNC(=O)c1c(-c2ccc(Oc3ccc(F)cc3)cc2)oc2cc(NS(C)(=O)=O)c(C3CC3)cc12 [Compound I-40] | – | 169 to 170 | 98 | – | – | –
CNC(=O)c1c(-c2ccc(Oc3ccccc3)cc2)oc2cc(N3CCCCS3(=O)=O)c(C3CC3)cc12 [Compound I-93] | – | 197 to 199 | 71 | – | – | –
CNC(=O)c1c(-c2ccc(Nc3ccccn3)cc2)oc2cc(N(CCO)S(C)(=O)=O)c(OC)cc12 [Compound I-123] | – | 241 to 243 | 156 | – | – | –
CNC(=O)c1c(-c2ccc(Oc3ccc(F)cc3)cc2)oc2cc(N(CCCNS(C)(=O)=O)S(C)(=O)=O)c(C3CC3)cc12 [Compound I-116] | 4 | – | – | – | – | –
CNC(=O)c1c(-c2ccc(Oc3ccccc3)cc2)oc2cc(N3CCOCC3)c(C3CC3)cc12 [Compound I-77] | – | 223.4 to 223.9 | 672 | – | – | –
CNC(=O)c1c(-c2ccc(Oc3ccc(F)cc3)cc2)oc2cc(N(CCN)S(C)(=O)=O)c(C3CC3)cc12.Cl [Compound I-74] | – | 223 to 224 | 83 | – | – | –
